# Test results published in US12559474B2, “Triazine derivatives having virus replication inhibitory activity and pharmaceutical composition comprising the same” (priority 2021, dated 2026).
# Read-outs that look alike come from different tables or passages of the source.
# Experiments:
# [1] = tested on: SARS-CoV-2; experiment: microbe, parasite or virus in culture; assay type: cell-based; settings: Severe acute respiratory syndrome coronavirus 2, VeroE6/TMPRSS2, 72 h, 50% SARS-CoV-2 infected cell death inhibitory concentration, VeroE6/TMPRSS2 cells, 3 days culture
# [2] = biological target: SARS-CoV-2 3CL protease (Severe acute respiratory syndrome coronavirus 2, UniProt P0DTD1); experiment: biochemical; settings: 50% SARS-CoV-2 3CL protease inhibitory concentration, read-out: IC50
SMILES,EC50 ([1]; class symbols) [nM],IC50 ([2]; given as class symbols) [nM],EC50 ([1]; CellTiter-Glo 2.0) [nM],IC50 ([2]; RapidFire MS) [nM]
Cn1cc2cc(Nc3nc(=O)n(Cc4ccc[nH]c4=O)c(=O)n3Cc3cc(F)c(F)cc3F)c(Cl)cc2n1 [Compound I-0009],< 1000,< 100,,
COc1cc(F)c(F)cc1Cn1c(Nc2cc3cn(C)nc3cc2Cl)nc(=O)n(-c2cncc(C)c2)c1=O [II-0520],1000 to 10000,< 100,,
CNC(=O)Cn1cc2cc(Nc3nc(=O)n(-c4cncc5ccccc45)c(=O)n3Cc3cc(F)c(F)c(F)c3)c(Cl)cc2n1 [II-0509],1000 to 10000,< 100,,
Cc1cncc(-n2c(=O)nc(Nc3cc4c(cc3F)nc(C)n4C)n(Cc3ccc(F)c(C#N)c3)c2=O)c1 [II-0353],1000 to 10000,< 100,,
Cc1nc2cc(C)c(Nc3nc(=O)n(Cc4ccc[nH]c4=O)c(=O)n3Cc3cc(F)c(F)c(F)c3)cc2s1 [Compound I-0116],1000 to 10000,< 100,,
Cn1cnc(Cn2c(=O)cc(Nc3cc4cn(C(F)F)nc4cc3Cl)n(Cc3cc(F)c(F)c(F)c3)c2=O)n1 [II-0431],< 1000,< 100,,
COc1ccc(Nc2nc(=O)n(Cc3cc4c([nH]c3=O)CCC4)c(=O)n2Cc2cc(F)c(F)c(F)c2)cc1 [II-0343],,,4140,310
CNc1nc2ccc(Nc3nc(=O)n(-c4cncc(C)c4)c(=O)n3Cc3cc(C#N)c(F)cc3C)cc2s1 [II-0420],< 1000,< 100,,
Cn1cc2cc(Nc3nc(=O)n(Cc4cc(Cl)ccn4)c(=O)n3Cc3cc(F)c(F)cc3F)c(Cl)cc2n1 [II-0255],,,1520,100
Cn1cc2cc(Nc3nc(=O)n(-c4cncc(Cl)c4)c(=O)n3Cc3cc(Cl)c(F)cc3F)ccc2n1 [II-0576],,,530,17
Cc1cncc(-n2c(=O)nc(Nc3cc4cn(C5CC5)nc4cc3Cl)n(Cc3ccc(F)c(C#N)c3)c2=O)c1 [II-0366],< 1000,< 100,,
Cc1cncc(-n2c(=O)nc(Nc3ccc4nn(C)nc4c3)n(Cc3ccc(F)c(C#N)c3)c2=O)c1 [II-0183],< 1000,< 100,,
CNc1nc2cc(Cl)c(Nc3nc(=O)n(-c4cncc(C)c4)c(=O)n3Cc3cc(C#N)c(F)cc3C)cc2o1 [II-0346],< 1000,< 100,,
Cn1cnc(Cn2c(=O)nc(Nc3cc4cn(CC5(NC(=O)OC(C)(C)C)CC5)nc4cc3Cl)n(Cc3cc(Cl)c(F)cc3F)c2=O)n1 [II-0562],1000 to 10000,< 100,,
COc1ccc(Nc2nc(=O)n(Cc3ncc(C)s3)c(=O)n2Cc2cc(F)c(F)c(F)c2)cc1 [Compound I-0339],1000 to 10000,100 to 1000,8000,610
Cn1cc2cc(Nc3nc(=O)n(-c4cncc(N)c4)c(=O)n3Cc3cc(Cl)c(F)cc3F)c(Cl)cc2n1 [II-0381],< 1000,< 100,,
N#CC1(Cn2cc3cc(Nc4nc(=O)n(Cc5ccc[nH]c5=O)c(=O)n4Cc4cc(F)c(F)c(F)c4)c(Cl)cc3n2)CC1 [II-0412],1000 to 10000,< 100,,
O=C1CCC(Nc2nc(=O)n(Cc3ccc[nH]c3=O)c(=O)n2Cc2cc(F)c(F)c(F)c2)CN1 (racemic) [Compound I-0133],< 1000,1000 to 10000,,3400
O=c1[nH]cccc1Cn1c(=O)nc(NC2(c3ccccc3F)COC2)n(Cc2cc(F)c(F)c(F)c2)c1=O [II-0484],,,14200,3400
COc1ccc(Nc2nc(=O)n(Cc3ccc[nH]c3=O)c(=O)n2Cc2ccc(F)c(Br)c2)cc1 [Compound I-0196],1000 to 10000,< 100,,
Cc1cncc(-n2c(=O)nc(Nc3cc4oc(C)nc4cc3C)n(Cc3ccc(F)c(C#N)c3)c2=O)c1 [II-0110],< 1000,< 100,,
Cc1ccc(C#N)cc1Cn1c(Nc2ccc3nn(C)cc3c2)nc(=O)n(-c2cncc(Cl)c2)c1=O [II-0347],,,190,7
Cn1cnc(Cn2c(=O)nc(Nc3cc4cn(C)nc4cc3Cl)n(Cc3cccc4ccccc34)c2=O)n1 [II-0223],,,22500,780
COc1ccc(Nc2nc(=O)n(Cc3ccc[nH]c3=O)c(=O)n2Cc2cc(Cl)ccc2F)cc1 [Compound I-0231],1000 to 10000,< 100,,
Cn1cnc(Cn2c(=O)nc(Nc3cc4sc(N)nc4cc3Cl)n(Cc3cc(F)c(F)cc3F)c2=O)n1 [II-0536],1000 to 10000,< 100,,
Cc1cncc(-n2c(=O)nc(Nc3cc4cn(C)nc4cc3Cl)n(Cc3ccc(F)c(F)c3F)c2=O)c1 [II-0175],< 1000,< 100,,
O=c1[nH]cccc1Cn1c(=O)nc(Nc2cc3cn(CCN4CCOCC4)nc3cc2Cl)n(Cc2cc(F)c(F)c(F)c2)c1=O [Compound I-0249],1000 to 10000,< 100,,
Cc1cncc(-n2c(=O)nc(Nc3cc4cn(C)nc4cc3Cl)n(Cc3ccc(F)c(C4CC4)c3)c2=O)c1 [II-0595],,,8220,530
